pIC50: −log10 of the molar value.

The results in this text go back to patent publication US8691865B2 (AbbVie Inc., priority 2008, dated 2014).

Sequence of human Cav2.2 (Q00975 whole entry): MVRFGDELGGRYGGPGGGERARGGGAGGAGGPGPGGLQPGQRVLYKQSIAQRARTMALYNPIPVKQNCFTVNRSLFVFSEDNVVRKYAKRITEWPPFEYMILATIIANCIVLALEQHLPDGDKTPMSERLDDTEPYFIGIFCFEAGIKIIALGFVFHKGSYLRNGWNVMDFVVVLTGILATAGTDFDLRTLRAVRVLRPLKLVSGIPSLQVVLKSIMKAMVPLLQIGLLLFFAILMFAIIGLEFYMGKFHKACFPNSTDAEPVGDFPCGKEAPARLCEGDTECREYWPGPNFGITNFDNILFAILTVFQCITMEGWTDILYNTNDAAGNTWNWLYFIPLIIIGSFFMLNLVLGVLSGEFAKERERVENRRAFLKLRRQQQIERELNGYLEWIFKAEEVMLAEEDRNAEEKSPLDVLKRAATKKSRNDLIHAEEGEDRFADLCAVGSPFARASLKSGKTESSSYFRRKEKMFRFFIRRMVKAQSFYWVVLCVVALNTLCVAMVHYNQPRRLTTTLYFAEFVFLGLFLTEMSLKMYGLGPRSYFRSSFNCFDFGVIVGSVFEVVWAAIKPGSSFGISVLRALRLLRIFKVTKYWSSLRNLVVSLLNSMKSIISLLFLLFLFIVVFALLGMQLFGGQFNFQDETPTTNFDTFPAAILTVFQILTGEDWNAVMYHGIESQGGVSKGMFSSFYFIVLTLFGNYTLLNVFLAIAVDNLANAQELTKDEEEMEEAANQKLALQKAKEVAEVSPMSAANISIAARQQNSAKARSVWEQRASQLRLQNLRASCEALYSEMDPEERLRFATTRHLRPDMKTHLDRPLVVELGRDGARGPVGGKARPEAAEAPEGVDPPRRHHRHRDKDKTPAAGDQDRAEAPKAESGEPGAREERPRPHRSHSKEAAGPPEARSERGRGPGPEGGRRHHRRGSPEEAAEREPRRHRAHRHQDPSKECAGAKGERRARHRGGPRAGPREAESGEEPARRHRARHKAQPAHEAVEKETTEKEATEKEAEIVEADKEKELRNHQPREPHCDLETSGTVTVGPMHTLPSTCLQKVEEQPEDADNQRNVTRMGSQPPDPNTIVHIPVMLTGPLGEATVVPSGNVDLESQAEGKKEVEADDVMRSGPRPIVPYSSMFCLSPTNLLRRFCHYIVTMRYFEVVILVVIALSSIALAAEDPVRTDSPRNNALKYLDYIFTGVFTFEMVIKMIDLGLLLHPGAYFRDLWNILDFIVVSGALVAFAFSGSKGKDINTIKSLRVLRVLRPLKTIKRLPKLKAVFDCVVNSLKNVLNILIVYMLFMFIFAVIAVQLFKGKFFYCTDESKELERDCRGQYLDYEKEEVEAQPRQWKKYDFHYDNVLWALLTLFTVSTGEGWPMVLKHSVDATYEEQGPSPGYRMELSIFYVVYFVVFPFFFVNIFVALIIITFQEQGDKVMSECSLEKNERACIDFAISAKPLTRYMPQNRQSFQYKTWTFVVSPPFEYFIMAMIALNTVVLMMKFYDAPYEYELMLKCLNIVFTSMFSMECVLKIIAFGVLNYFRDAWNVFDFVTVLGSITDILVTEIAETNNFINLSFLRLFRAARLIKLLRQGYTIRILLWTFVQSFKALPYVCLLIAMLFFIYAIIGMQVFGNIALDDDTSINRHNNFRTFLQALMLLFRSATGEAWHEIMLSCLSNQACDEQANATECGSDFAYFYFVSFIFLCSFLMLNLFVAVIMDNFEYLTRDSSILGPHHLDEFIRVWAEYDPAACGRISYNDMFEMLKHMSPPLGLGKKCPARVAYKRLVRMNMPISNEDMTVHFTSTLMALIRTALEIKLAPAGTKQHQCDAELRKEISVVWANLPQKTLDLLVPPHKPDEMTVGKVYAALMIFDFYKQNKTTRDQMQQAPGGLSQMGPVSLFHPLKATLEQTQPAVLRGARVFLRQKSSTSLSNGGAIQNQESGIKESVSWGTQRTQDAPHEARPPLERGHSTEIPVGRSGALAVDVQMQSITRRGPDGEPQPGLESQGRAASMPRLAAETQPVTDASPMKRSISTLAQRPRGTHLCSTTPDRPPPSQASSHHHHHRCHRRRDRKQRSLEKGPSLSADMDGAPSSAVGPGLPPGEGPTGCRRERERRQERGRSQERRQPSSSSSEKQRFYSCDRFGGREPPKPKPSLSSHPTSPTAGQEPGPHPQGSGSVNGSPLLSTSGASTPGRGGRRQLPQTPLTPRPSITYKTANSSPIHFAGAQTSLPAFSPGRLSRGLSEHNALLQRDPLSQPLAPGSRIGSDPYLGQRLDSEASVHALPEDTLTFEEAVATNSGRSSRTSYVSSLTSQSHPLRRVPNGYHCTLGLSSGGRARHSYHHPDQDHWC
Sequence of human Cav2.2 (P54289 25-956 partner limits assumed): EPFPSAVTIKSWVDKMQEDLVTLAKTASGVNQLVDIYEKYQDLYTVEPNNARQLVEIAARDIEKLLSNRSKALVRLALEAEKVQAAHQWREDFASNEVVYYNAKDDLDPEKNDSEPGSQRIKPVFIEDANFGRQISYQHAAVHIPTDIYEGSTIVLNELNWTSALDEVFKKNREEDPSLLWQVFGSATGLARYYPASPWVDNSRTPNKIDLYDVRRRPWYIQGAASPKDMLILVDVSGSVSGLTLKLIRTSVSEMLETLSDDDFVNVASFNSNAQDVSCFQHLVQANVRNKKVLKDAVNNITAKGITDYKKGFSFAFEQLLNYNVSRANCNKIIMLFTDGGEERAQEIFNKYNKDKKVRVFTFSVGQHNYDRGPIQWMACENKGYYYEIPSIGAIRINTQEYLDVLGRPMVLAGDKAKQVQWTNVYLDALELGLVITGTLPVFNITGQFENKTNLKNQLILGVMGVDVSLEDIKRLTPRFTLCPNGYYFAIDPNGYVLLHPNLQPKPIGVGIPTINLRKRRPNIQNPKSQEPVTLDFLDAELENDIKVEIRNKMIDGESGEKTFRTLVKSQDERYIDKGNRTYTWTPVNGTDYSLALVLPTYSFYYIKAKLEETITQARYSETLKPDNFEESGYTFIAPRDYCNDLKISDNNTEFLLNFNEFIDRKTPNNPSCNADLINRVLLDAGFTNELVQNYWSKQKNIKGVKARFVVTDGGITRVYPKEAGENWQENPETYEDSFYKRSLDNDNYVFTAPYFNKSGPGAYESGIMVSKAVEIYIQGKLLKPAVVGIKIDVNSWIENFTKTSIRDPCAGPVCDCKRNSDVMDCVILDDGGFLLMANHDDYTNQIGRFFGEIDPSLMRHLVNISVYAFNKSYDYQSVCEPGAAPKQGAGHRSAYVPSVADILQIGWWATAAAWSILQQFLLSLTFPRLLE
Sequence of human Cav2.2 (P54289 957-1103 partner limits assumed): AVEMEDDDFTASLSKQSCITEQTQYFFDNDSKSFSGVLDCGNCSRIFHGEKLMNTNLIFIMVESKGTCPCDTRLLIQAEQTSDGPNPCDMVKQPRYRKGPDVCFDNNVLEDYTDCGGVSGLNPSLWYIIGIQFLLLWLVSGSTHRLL
Sequence of human Cav2.2 (P54284 whole entry partner): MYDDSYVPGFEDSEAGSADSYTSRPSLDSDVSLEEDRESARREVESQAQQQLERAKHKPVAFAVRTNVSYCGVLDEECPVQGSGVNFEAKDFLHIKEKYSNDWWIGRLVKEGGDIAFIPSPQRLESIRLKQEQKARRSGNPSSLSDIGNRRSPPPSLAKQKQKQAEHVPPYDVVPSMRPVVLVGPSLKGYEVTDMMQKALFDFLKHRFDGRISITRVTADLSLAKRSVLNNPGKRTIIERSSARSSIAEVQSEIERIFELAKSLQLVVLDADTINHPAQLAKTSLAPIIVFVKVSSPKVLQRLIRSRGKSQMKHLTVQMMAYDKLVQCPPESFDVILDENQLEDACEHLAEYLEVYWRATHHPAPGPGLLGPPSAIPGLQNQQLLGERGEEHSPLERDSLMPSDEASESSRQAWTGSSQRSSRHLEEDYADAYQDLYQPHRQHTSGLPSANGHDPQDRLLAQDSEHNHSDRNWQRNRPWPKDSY

The test concerns the target human Cav2.2 (Homo sapiens, UniProt Q00975). Briefly: Assessment of calcium channel activity using FLIPR (Ca2+ influx in IMR32 cells). It counts as cell-based. In outline: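 Human neuroblastoma IMR32 cells were seeded at 1−1.2×10^5 cells/well and cultured 48 h at 37 °C before FLIPR calcium influx measurement. Percent inhibition at each concentration was calculated against the no-inhibitor signal, and IC50 came from sigmoidal dose-response fits.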
As usually defined, the pIC50 is the IC50 on a negative log10 scale, so that one unit is a factor of ten. With `CN[C@@H](CC(C)C)C(=O)N[C@H]1CC[C@@H]2CN(c3cccc(F)c3)C[C@@H]21` [Example 629, N-[(3aR,4S,6aS)-2-(3-fluorophenyl)octahydrocyclopenta[c]pyrrol-4-yl]-N^2-methyl-L-leucinamide], the pIC50 is 5.37.

For the molecule `CN[C@@H](CC(C)C)C(=O)N[C@H]1CC[C@@H]2CN(c3ccccc3C)C[C@@H]21` [Example 630, N^2-methyl-N-[(3aR,4S,6aS)-2-(2-methylphenyl)octahydrocyclopenta[c]pyrrol-4-yl]-L-leucinamide], the pIC50 is 5.48.

In the case of `O=C(N[C@H]1CC[C@@H]2CN(c3ccc(OC(F)(F)F)cc3)C[C@@H]21)[C@@H]1C[C@@H](F)CN1` [Example 631, (4R)-4-fluoro-N-{(3aR,4S,6aS)-2-[4-(trifluoromethoxy)phenyl]octahydrocyclopenta[c]pyrrol-4-yl}-L-prolinamide], the pIC50 is below 4.52.

As for `N#Cc1cccc(N2C[C@H]3CC[C@H](NC(=O)[C@@H]4C[C@@H](F)CN4)[C@H]3C2)c1` [Example 632, (4R)-N-[(3aR,4S,6aS)-2-(3-cyanophenyl)octahydrocyclopenta[c]pyrrol-4-yl]-4-fluoro-L-prolinamide], the pIC50 was 4.72.

On to `N#Cc1ccc(N2C[C@H]3CC[C@H](NC(=O)[C@@H]4C[C@@H](F)CN4)[C@H]3C2)cc1` [Example 633, (4R)-N-[(3aR,4S,6aS)-2-(4-cyanophenyl)octahydrocyclopenta[c]pyrrol-4-yl]-4-fluoro-L-prolinamide], for which the pIC50 was 4.58.

With `CN[C@@H](CC(C)C)C(=O)N[C@H]1CC[C@@H]2CN(c3ccccc3Cl)C[C@@H]21` [Example 634, N-[(3aR,4S,6aS)-2-(2-chlorophenyl)octahydrocyclopenta[c]pyrrol-4-yl]-N^2-methyl-L-leucinamide], the pIC50 was 5.62.

Regarding `CN[C@@H](CC(C)C)C(=O)N[C@H]1CC[C@@H]2CN(c3cccc(C(F)(F)F)c3F)C[C@@H]21` [Example 635, N-{(3aR,4S,6aS)-2-[2-fluoro-3-(trifluoromethyl)phenyl]octahydrocyclopenta[c]pyrrol-4-yl}-N^2-methyl-L-leucinamide], the pIC50 is 6.04.

On to `CN[C@@H](CC(C)C)C(=O)N[C@H]1CC[C@@H]2CN(c3cccc(C)c3)C[C@@H]21` [Example 636, N^2-methyl-N-[(3aR,4S,6aS)-2-(3-methylphenyl)octahydrocyclopenta[c]pyrrol-4-yl]-L-leucinamide], for which the pIC50 was 5.43.

For `O=C(N[C@H]1CC[C@@H]2CN(c3cc(C(F)(F)F)ccn3)C[C@@H]21)[C@@H]1C[C@@H](F)CN1` [Example 637, (4R)-4-fluoro-N-{(3aR,4S,6aS)-2-[4-(trifluoromethyl)pyridin-2-yl]octahydrocyclopenta[c]pyrrol-4-yl}-L-prolinamide], the pIC50 is 4.69.

Turning to `O=C(N[C@H]1CC[C@@H]2CN(c3ccnc(C(F)(F)F)c3)C[C@@H]21)[C@@H]1C[C@@H](F)CN1` [Example 638, (4R)-4-fluoro-N-{(3aR,4S,6aS)-2-[2-(trifluoromethyl)pyridin-4-yl]octahydrocyclopenta[c]pyrrol-4-yl}-L-prolinamide], the pIC50 was below 4.52.

For the molecule `CN[C@@H](CC(C)C)C(=O)N[C@H]1CC[C@@H]2CN(c3ccc(Cl)cc3)C[C@@H]21` [Example 639, N-[(3aR,4S,6aS)-2-(4-chlorophenyl)octahydrocyclopenta[c]pyrrol-4-yl]-N^2-methyl-L-leucinamide], the pIC50 was 5.11.

Turning to `O=C(N[C@H]1CC[C@@H]2CN(c3cccc(F)c3)C[C@@H]21)[C@@H]1C[C@@H](F)CN1` [Example 640, (4R)-4-fluoro-N-[(3aR,4S,6aS)-2-(3-fluorophenyl)octahydrocyclopenta[c]pyrrol-4-yl]-L-prolinamide], the negative-log IC50 (pIC50) was 4.84.

Turning to `O=C(N[C@H]1CC[C@@H]2CN(c3ccc(F)cc3)C[C@@H]21)[C@@H]1C[C@@H](F)CN1` [Example 641, (4R)-4-fluoro-N-[(3aR,4S,6aS)-2-(4-fluorophenyl)octahydrocyclopenta[c]pyrrol-4-yl]-L-prolinamide], the pIC50 is 4.58.

Turning to `Cc1cccc(N2C[C@H]3CC[C@H](NC(=O)[C@@H]4C[C@@H](F)CN4)[C@H]3C2)c1` [Example 642, (4R)-4-fluoro-N-[(3aR,4S,6aS)-2-(3-methylphenyl)octahydrocyclopenta[c]pyrrol-4-yl]-L-prolinamide], the pIC50 is 4.81.

Turning to `O=C(N[C@H]1CC[C@@H]2CN(c3cccc(Cl)c3)C[C@@H]21)[C@@H]1C[C@@H](F)CN1` [Example 643, (4R)-N-[(3aR,4S,6aS)-2-(3-chlorophenyl)octahydrocyclopenta[c]pyrrol-4-yl]-4-fluoro-L-prolinamide], the pIC50 was 5.45.

On to `O=C(N[C@H]1CC[C@@H]2CN(c3ccc(Cl)cc3)C[C@@H]21)[C@@H]1C[C@@H](F)CN1` [Example 644, (4R)-N-[(3aR,4S,6aS)-2-(4-chlorophenyl)octahydrocyclopenta[c]pyrrol-4-yl]-4-fluoro-L-prolinamide], for which the pIC50 was 5.07.

Turning to `COc1cccc(N2C[C@H]3CC[C@H](NC(=O)[C@@H]4C[C@@H](F)CN4)[C@H]3C2)c1` [Example 645, (4R)-4-fluoro-N-[(3aR,4S,6aS)-2-(3-methoxyphenyl)octahydrocyclopenta[c]pyrrol-4-yl]-L-prolinamide], the pIC50 is below 4.52.

As to `CN[C@@H](CC(C)C)C(=O)N[C@H]1CC[C@@H]2CN(c3cccc(C#N)c3)C[C@@H]21` [Example 646, N-[(3aR,4S,6aS)-2-(3-cyanophenyl)octahydrocyclopenta[c]pyrrol-4-yl]-N^2-methyl-L-leucinamide], the negative logarithm of the IC50 (pIC50) is 5.67.

Take `CN[C@@H](CC(C)C)C(=O)N[C@H]1CC[C@@H]2CN(c3ccc(C#N)cc3)C[C@@H]21` [Example 647, N-[(3aR,4S,6aS)-2-(4-cyanophenyl)octahydrocyclopenta[c]pyrrol-4-yl]-N^2-methyl-L-leucinamide]: the pIC50 is 5.42.

Take `CN[C@@H](CC(C)C)C(=O)N[C@H]1CC[C@@H]2CN(c3ccc(C)cc3)C[C@@H]21` [Example 648, N^2-methyl-N-[(3aR,4S,6aS)-2-(4-methylphenyl)octahydrocyclopenta[c]pyrrol-4-yl]-L-leucinamide]: the pIC50 is 5.45.

Consider `Cc1ccc(CN[C@H]2CC[C@@H]3CN(c4cccc(C(F)(F)F)n4)C[C@@H]32)cc1` [Example 649, (3aR,4S,6aS)-N-(4-methylbenzyl)-2-[6-(trifluoromethyl)pyridin-2-yl]octahydrocyclopenta[c]pyrrol-4-amine], for which the pIC50 is 6.39.

With `O=S(=O)(c1cccc(C(F)(F)F)c1)N1C[C@H]2CC[C@H](NCc3cc4cc(F)ccc4[nH]3)[C@H]2C1` [Example 650, (3aR,4S,6aS)-N-[(5-fluoro-1H-indol-2-yl)methyl]-2-{[3-(trifluoromethyl)phenyl]sulfonyl}octahydrocyclopenta[c]pyrrol-4-amine], the pIC50 was 6.23.

For the molecule `N#Cc1ccccc1N1C[C@H]2CC[C@H](NC(=O)[C@@H]3C[C@@H](F)CN3)[C@H]2C1` [Example 651, (4R)-N-[(3aR,4S,6aS)-2-(2-cyanophenyl)octahydrocyclopenta[c]pyrrol-4-yl]-4-fluoro-L-prolinamide], the pIC50 is 4.83.

Consider `Cc1ccc(N2C[C@H]3CC[C@H](NC(=O)[C@@H]4C[C@@H](F)CN4)[C@H]3C2)cc1` [Example 652, (4R)-4-fluoro-N-[(3aR,4S,6aS)-2-(4-methylphenyl)octahydrocyclopenta[c]pyrrol-4-yl]-L-prolinamide], for which the negative logarithm of the IC50 (pIC50) was 4.67.

In the case of `COc1ccc(N2C[C@H]3CC[C@H](NC(=O)[C@@H]4C[C@@H](F)CN4)[C@H]3C2)cc1` [Example 653, (4R)-4-fluoro-N-[(3aR,4S,6aS)-2-(4-methoxyphenyl)octahydrocyclopenta[c]pyrrol-4-yl]-L-prolinamide], the pIC50 is below 4.52.

Turning to `O=S(=O)(c1ccc(C(F)(F)F)cc1)N1C[C@H]2CC[C@H](NCc3cc4cc(F)ccc4[nH]3)[C@H]2C1` [Example 654, (3aR,4S,6aS)-N-[(5-fluoro-1H-indol-2-yl)methyl]-2-{[4-(trifluoromethyl)phenyl]sulfonyl}octahydrocyclopenta[c]pyrrol-4-amine], the pIC50 was 6.09.

For `O=C(N[C@H]1CC[C@@H]2CN(c3csc(C(F)F)c3)C[C@@H]21)[C@@H]1C[C@@H](F)CN1` [Example 655, (4R)-N-{(3aR,4S,6aS)-2-[5-(difluoromethyl)-3-thienyl]octahydrocyclopenta[c]pyrrol-4-yl}-4-fluoro-L-prolinamide], the pIC50 was 4.71.

As for `O=C(N[C@H]1CC[C@@H]2CN(c3ccccc3OC(F)(F)F)C[C@@H]21)[C@@H]1C[C@@H](F)CN1` [Example 656, (4R)-4-fluoro-N-{(3aR,4S,6aS)-2-[2-(trifluoromethoxy)phenyl]octahydrocyclopenta[c]pyrrol-4-yl}-L-prolinamide], the pIC50 is 5.67.

`CN[C@@H](CC(C)C)C(=O)N[C@H]1CC[C@@H]2CN(c3ccc(OC(F)(F)F)c(F)c3)C[C@@H]21` [Example 657, N-{(3aR,4S,6aS)-2-[3-fluoro-4-(trifluoromethoxy)phenyl]octahydrocyclopenta[c]pyrrol-4-yl}-N^2-methyl-L-leucinamide]: the pIC50 was 5.74.

For `O=C(N[C@H]1CC[C@@H]2CN(c3ccccc3Cl)C[C@@H]21)[C@@H]1C[C@@H](F)CN1` [Example 659, (4R)-N-[(3aR,4S,6aS)-2-(2-chlorophenyl)octahydrocyclopenta[c]pyrrol-4-yl]-4-fluoro-L-prolinamide], the pIC50 is 5.16.

On to `O=C(N[C@H]1CC[C@@H]2CN(c3ncccc3C(F)(F)F)C[C@@H]21)[C@@H]1C[C@@H](F)CN1` [Example 660, (4R)-4-fluoro-N-{(3aR,4S,6aS)-2-[3-(trifluoromethyl)pyridin-2-yl]octahydrocyclopenta[c]pyrrol-4-yl}-L-prolinamide], for which the negative logarithm of the IC50 (pIC50) is 5.15.

As for `O=C(N[C@H]1CC[C@@H]2CN(c3ccccc3F)C[C@@H]21)[C@@H]1C[C@@H](F)CN1` [Example 661, (4R)-4-fluoro-N-[(3aR,4S,6aS)-2-(2-fluorophenyl)octahydrocyclopenta[c]pyrrol-4-yl]-L-prolinamide], the pIC50 was 4.83.
